Assays:
[1] = biological target: SARS-CoV-2 Main Protease (SARS-CoV-2) (UniProt P0DTD1)
[2] = biological target: SARS-CoV-2 Main Protease (SARS-CoV-2) (UniProt P0DTD1); remark: listed apart in the source

Compound | relative solubility at 20 uM | relative solubility at 100 uM | inhibition ([1]; 20.0 µM) [%] | inhibition ([1]; 50.0 µM) [%] | inhibition ([2]; 50.0 µM) [%] | IC50 [2] [µM] | inhibition ([2]; 20.0 µM) [%] | IC50 [1] [µM]
O=C(CCl)Nc1cccc(N2CCCC2=O)c1 | 1 | 1 | 27.1 | 51.4 |  |  |  | 
O=C(CCl)N1CCN(Cc2cnc(-c3ccccc3)nc2)CC1 |  |  | 6.18 | 15.7 | 0 |  |  | 
O=C(NCCN1CCN(C(=O)CCl)CC1)c1cccc2ccccc12 |  |  | 6.97 | 4.69 | 23.8 |  |  | 
CC(C)C[C@@H]1CN(C(=O)CCl)CCN1Cc1cccc(Cl)c1 (stereo in doubt) |  |  | 99.2 | 99.5 | 100 | 0.515 |  | 
C=CC(=O)N(c1ccc(C(F)(F)F)cc1)C(C(=O)NCCc1cccc(F)c1)c1cncc(O)c1 (stereo not given) |  |  | 26.8 | 44.9 |  | 17.3 |  | 
C=CC(=O)N(c1ccc(C(C)OC)cc1)C(C(=O)Nc1cccc(CC)c1)c1cccnc1 (stereo not given) |  |  | 36.6 | 63.7 |  |  | 4.44 | 
Cc1cccc(NC(=O)CN2C(=O)C(=O)c3ccccc32)c1 |  |  | -4.74 | -1.42 | 53.7 | 42.4 |  | 
C=CC(=O)N(C1CCOC1=O)C(C(=O)NC(C)(C)C)c1cccnc1 (stereo not given) |  |  | -5.08 | -7.63 | 0 |  |  | 
CO[C@@H]1C[C@@H](COc2cccnc2)N(c2ncccn2)C1 (stereo in doubt) |  |  | -6.63 | -1.19 | 0 |  |  | 
Cc1cc([C@H](C)C(=O)O)cc2[nH]c3ccc(Cl)cc3c12 (stereo in doubt) |  |  | 0.304 | 3.37 | 9.04 |  |  | 
O=C(Oc1cncc(Cl)c1)c1cccc2[nH]ccc12 |  |  | 99.8 | 100 | 100 |  |  | 
Nc1ncc(S(=O)(=O)c2ccc(Cl)cc2)c(N)n1 |  |  |  | -22.1 | 0 |  |  | 
Cc1ccncc1NC(=O)Cc1cc(Cl)cc(OC2CC(=O)N2)c1 (stereo not given) | 0.99 | 1 |  |  |  |  |  | 
COC(=O)[C@H](CO)NC(=O)[C@H](Cc1ccccc1)NC(=O)OCc1ccccc1 (stereo in doubt) |  |  | 1.06 | 2.61 | 0 |  |  | 
O=S(=O)(Cc1noc(C2CC2)n1)Nc1cccnc1 |  |  | -2.48 | -1.33 | 9.43 |  |  | 
C[C@@H]1CS/C(=N\NC(=O)C(=O)C(NC(=O)C2CCCCCC2)C2CCOCC2)N1C (stereo in doubt) |  |  |  | 2.64 | 21 |  |  | 
O=C1C(=O)N(Cc2ncon2)c2ccc(Br)cc21 |  |  | -1.88 | -2.4 | 94.1 | 3.79 |  | 
O=[N+]([O-])c1cnc(Sc2nccc(-c3cccnc3)n2)s1 |  |  | 9.63 | 37.5 |  | 1.44 |  | 
C=CC(=O)N1CC(NCC2=CNC3C=CC(C#N)=CC23)C1 (stereo not given) | 1 | 0.95 |  |  |  |  |  | 
O=C(Cc1ccc(Cl)c(Cl)c1)Nc1cncc2ccccc12 |  |  |  |  |  | 0.132 |  | 0.261
CC(C)Cn1cc(NC(=O)NCCCN2CCC(C)CC2)c2ccccc2c1=O |  |  | -1.82 | -1.61 |  | 98.2 |  | 
C=CC(=O)N(C(C)COc1cccc(F)c1)C(C(=O)NC(C)(C)C)c1cccnc1 (stereo not given) |  |  | -1.52 | -5.54 | 0 |  |  | 

Compound | relative solubility at 20 uM | relative solubility at 100 uM | inhibition ([1]; 20.0 µM) [%] | inhibition ([1]; 50.0 µM) [%] | inhibition ([2]; 50.0 µM) [%] | IC50 [2] [µM] | inhibition ([2]; 20.0 µM) [%] | IC50 [1] [µM]
O=C(Nc1cccnc1)N(CCN1CCOCC1)c1cccc(Cl)c1 |  |  | 24.4 | 49.6 | 59.4 |  |  | 
COc1cccc(CNC(=O)N2CCN(C(=O)N3CCCCC3)CC2)c1 |  |  | -3.31 | -0.332 | 0 |  |  | 
O=C(Nc1cnccc1CO)C1CCOc2ccc(Cl)cc21 (stereo not given) | 0.94 | 0.93 |  |  |  |  |  | 
N#Cc1ccc(CN2C(=O)C(=O)c3cccc(Br)c32)c(F)c1 |  |  | -1.68 | -0.391 | 72.1 | 14.3 |  | 
C=CC(=O)N1CCN(S(C)(=O)=O)CC1c1ccccc1 (stereo not given) |  |  | -0.438 | 2.89 | 0 |  |  | 
COC(=O)c1cc(Br)cc2c1NC(=O)C2=O |  |  | -5.73 | -5.38 | 61.7 | 42.3 |  | 
CC(C)c1nc(CN(C)C(=O)N[C@H](C(=O)N[C@@H](Cc2ccccc2)C[C@H](O)[C@H](Cc2ccccc2)NC(=O)OCc2cncs2)C(C)C)cs1 (stereo in doubt) |  |  | 2.31 | 6.72 |  |  | 0 | 
CC(=O)/C(C#N)=C(\O)Nc1ccc(C(F)(F)F)cc1 |  |  | -2.89 | -3 | 22.2 |  |  | 
COc1ccccc1OCC(C)NC(=O)c1cc(=O)[nH]c2ccc(F)cc12 (stereo not given) |  |  | 42 | 59.3 | 40.1 |  |  | 
CNc1ccc(N(Cc2ccsc2)C(=O)Cn2nnc3ccccc32)cc1 | 0.99 | 0.77 | 57.1 | 82.6 |  |  |  | 
CCOC(=O)c1c(C)n(S(C)(=O)=O)c2ccc(N(C(=O)c3ccco3)S(C)(=O)=O)cc12 |  |  | 67.5 | 98.6 |  | 0.147 |  | 
NCCn1cc(C(=O)N2CC3(CCC3)c3cc(Br)ccc32)cn1 |  |  | -2.84 | 7.52 | 0 |  |  | 
Cc1ccc(S(=O)(=O)Nc2c(-c3cccnc3)nc3ccccn23)c(C)c1 |  |  | 2.5 | 7.7 | 0 |  |  | 
CCOC(=O)c1cc(-c2ccccc2)sc1NC(=O)Cc1csc(-c2ccccc2)n1 |  |  | 91.8 | 97.9 |  | 2.69 |  | 
CS(=O)(=O)c1ccc(N2CCNCC2)cc1 |  |  | -2.52 | 5.05 |  | 83.8 |  | 
CCOc1ccccc1CN1C(=O)C(=O)c2cc(Br)ccc21 |  |  | 0.566 | 3.64 | 72.2 | 12.4 |  | 
CNC(=O)c1cc(Cl)cc(CC(=O)Nc2cnccc2C)c1 |  |  |  |  |  | 43.9 |  | 51.5
O=C1Nc2ccc(OCCF)cc2C1=O |  |  | -6.86 | -2.92 | 56.2 | 45.2 |  | 
COc1cc(Cl)cc(CC(=O)Nc2cnccc2C)c1 |  |  | 24.6 | 48.3 |  | 43.6 |  | 
O=S(=O)(Nc1ccccc1SCc1cccc(Cl)c1F)c1cc(Cl)sc1Cl |  |  | 90.3 | 81.3 |  | 1.92 |  | 
COC(=O)c1c(C)n(S(C)(=O)=O)c2ccc(N(C(=O)c3ccco3)S(C)(=O)=O)cc12 |  |  | 47.7 | 97.8 |  | 0.335 |  | 
O=C(CCl)N1CCN(S(=O)(=O)c2ccc(Cc3cccc4ccccc34)cc2)CC1 |  |  | 20.6 | 29.9 | 89 | 15.2 |  | 

— the COVID Moonshot data (paper PMC11187573), “Identification of SARS-CoV-2 Mpro inhibitors through deep reinforcement learning for de novo drug design and computational chemistry approaches” (RSC Medicinal Chemistry, 2024)
